pKi: −log10 of the molar value.

What is called pKi is the negative decadic logarithm of the Ki, by convention in mol/L.

One experiment deals with WDR5 (Homo sapiens (Human), UniProt P61964). Briefly: TR-FRET binding assay (displacement of 10mer-Thr-FAM probe from WDR5). The conditions noted are these: read-out: Ki for Inhibition of WDR5 by TR-FRET assay. A general note: Time-resolved FRET reads energy transfer from a long-lived donor to a nearby acceptor.
Take `Cc1ccnc(C(NC(=O)c2cc(Cn3ccn(C)c3=N)cc(-c3ncnc4c3CCCC4)c2)C2CC2)c1` (stereo not drawn) [Example 95, N-(Cyclopropyl(4-methylpyridin-2-yl)methyl)-3-((2-imino-3-methyl-2,3-dihydro-1H-imidazol-1-yl)methyl)-5-(5,6,7,8-tetrahydroquinazolin-4-yl)benzamide]: the pKi is 7.70.

Staying with this experiment, now noted: read-out: Ki for Inhibition of WDR5 by TR-FRET assay; TR-FRET, 10mer-Thr-FAM probe, WDR5-His tag 2 nM, pH 7.0.
`COc1ncc(C)cc1-c1cc(Cn2ccn(C)c2=N)cc(C(=O)NC(c2cc(C)ccn2)C2CC2)c1` (stereo not drawn) [Example 2, N-(Cyclopropyl(4-methylpyridin-2-yl)methyl)-3-((2-imino-3-methyl-2,3-dihydro-1-imidazol-1-yl)methyl)-5-(2-methoxy-5-methylpyridin-3-yl)benzamide]: the pKi is greater than 10.00. On the same count and under the same terms, under `COc1ccnc(CNC(=O)c2cc(Cn3ccn(C)c3=N)cc(-c3cc(C)cnc3OC)c2)c1` [Example 4, 3-((2-imino-3-methyl-2,3-dihydro-1H-imidazol-1-yl)methyl)-5-(2-methoxy-5-methylpyridin-3-yl)-N-((4-methoxypyridin-2-yl)methyl)benzamide] stands 9.47; under `Cc1cc(F)ccc1-c1cc(Cn2cc[nH]c2=N)cc(C(=O)NCc2ccc(Cl)c(Cl)c2)n1` [Example 6, N-(3,4-Dichlorobenzyl)-6-(4-fluoro-2-methylphenyl)-4-((2-imino-2,3-dihydro-1H-imidazol-1-yl)methyl)picolinamide], 7.62. On the same count and under the same terms, under `Cc1ccnc(C(NC(=O)c2cc(Cn3ccn(C)c3=N)cc(-c3ccnc(C)c3)c2)C2CC2)c1` (stereo not drawn) [Example 7] stands 9.10. Still for that read-out and setting: in the case of `Cc1ccnc(C(NC(=O)c2cc(Cn3ccn(C)c3=N)cc(-c3cccn3C)c2)C2CC2)c1` (stereo not drawn) [Example 11, N-(Cyclopropyl(4-methylpyridin-2-yl)methyl)-3-((2-imino-3-methyl-2,3-dihydro-1H-imidazol-1-yl)methyl)-5-(1-methyl-1H-pyrrol-2-yl)benzamide] it was 9.08. In the case of `Cc1ccnc(C(NC(=O)c2cc(Cn3ccn(C)c3=N)cc(-c3ccnn3C)c2)C2CC2)c1` (stereo not drawn) [Example 12, N-(Cyclopropyl(4-methylpyridin-2-yl)methyl)-3-((2-imino-3-methyl-2,3-dihydro-1H-imidazol-1-yl)methyl)-5-(1-methyl-1H-pyrazol-5-yl)benzamide], the pKi is 8.92.

Turning to `COc1cc(-c2cc(Cn3ccn(C)c3=N)cc(C(=O)NC(c3cc(C)ccn3)C3CC3)c2)ccn1` (stereo not drawn) [Example 14], the pKi was 8.22. The same measure, in the same setting: under `Cc1ccnc(C(NC(=O)c2cc(Cn3ccn(C)c3=N)cc(-c3cnccc3C)c2)C2CC2)c1` (stereo not drawn) [Example 15, N-(Cyclopropyl(4-methylpyridin-2-yl)methyl)-3-((2-imino-3-methyl-2,3-dihydro-1H-imidazol-1-yl)methyl)-5-(4-methylpyridin-3-yl)benzamide] stands 8.57; under `Cc1cc(CNC(=O)c2cc(Cn3ccn(C)c3=N)cc(-c3ccncc3C)c2)ccc1Cl` [Example 16, N-(4-Chloro-3-methylbenzyl)-3-((2-imino-3-methyl-2,3-dihydro-1H-imidazol-1-yl)methyl)-5-(3-methylpyridin-4-yl)benzamide], 9.31; under `Cc1cc(CNC(=O)c2cc(Cn3ccn(C)c3=N)cc(-c3ccnn3C)c2)ccc1Cl` [Example 17, N-(4-Chloro-3-methylbenzyl)-3-((2-imino-3-methyl-2,3-dihydro 1H-imidazol-1-yl)methyl)-5-(1-methyl-1H-pyrazol-5-yl)benzamide], 9.03. The same measure, in the same setting: under `Cc1cc(-c2cc(Cn3ccn(C)c3=N)cc(C(=O)NCc3ccc(Cl)c(C)c3)c2)ccn1` [Example 18, N-(4-Chloro-3-methylbenzyl)-3-((2-imino-3-methyl-2,3-dihydro-1H-imidazol-1-yl)methyl)-5-(2-methylpyridin-4-yl)benzamide] stands 8.46; under `Cc1cc(CNC(=O)c2cc(Cn3cc[nH]c3=N)cc(-c3cccn3C)c2)ccc1Cl` [Example 19, N-(4-Chloro-3-methylbenzyl)-3-((2-imino-2,3-dihydro-1H-imidazol-1-yl)methyl)-5-(1-methyl-1H-pyrrol-2-yl)benzamide], 9.46; under `COc1cnccc1-c1cc(Cn2ccn(C)c2=N)cc(C(=O)NCc2ccc(Cl)c(C)c2)c1` [Example 20, N-(4-Chloro-3-methylbenzyl)-3-((2-imino-3-methyl-2,3-dihydro-1H-imidazol-1-yl)methyl)-5-(3-methoxypyridin-4-yl)benzamide], 8.60. Still for that read-out and setting: in the case of `COc1cc(-c2cc(Cn3ccn(C)c3=N)cc(C(=O)NCc3ccc(Cl)c(Cl)c3)c2)ccn1` [Example 24, N-(3,4-Dichlorobenzyl)-3-((2-imino-3-methyl-2,3-dihydro-1H-imidazol-1-yl)methyl)-5-(2-methoxypyridin-4-yl)benzamide] it was 7.60; in that of `Cc1ncccc1-c1cc(Cn2ccn(C)c2=N)cc(C(=O)NCc2cncnc2)c1` [Example 40, 3-((2-Imino-3-methyl-2,3-dihydro-1H-imidazol-1-yl)methyl)-5-(2-methylpyridin-3-yl)-N-(pyrimidin-5-ylmethyl)benzamide], 6.88. On to `COc1cc(CNC(=O)c2cc(Cn3ccn(C)c3=N)cc(-c3cccnc3C)c2)ccn1` [Example 41, 3-((2-Imino-3-methyl-2,3-dihydro-1H-imidazol-1-yl)methyl)-N-((2-methoxypyridin-4-yl)methyl)-5-(2-methylpyridin-3-yl)benzamide], for which the pKi was 7.48. Still for that read-out and setting: in the case of `COc1ccnc(CNC(=O)c2cc(Cn3ccn(C)c3=N)cc(-c3cccnc3C)c2)c1` [Example 43, 3-((2-Imino-3-methyl-2,3-dihydro-1H-imidazol-1-yl)methyl)-N-((4-methoxypyridin-2-yl)methyl)-5-(2-methylpyridin-3-yl)benzamide] it was 5.07; in that of `COc1cc(CN(C)C(=O)c2cc(Cn3ccn(C)c3=N)cc(-c3ccnc(C)c3)c2)cc(OC)c1` [Example 48, N-(3,5-dimethoxybenzyl)-3-((2-imino-3-methyl-2,3-dihydro-1H-imidazol-1-yl)methyl)-N-methyl-5-(2-methylpyridin-4-yl)benzamide], 7.59. In the case of `Cc1cc(-c2cc(Cn3ccn(C)c3=N)cc(C(=O)NC(C3CC3)C3CC3)c2)ccn1` [Example 49, N-(Dicyclopropylmethyl)-3-((2-imino-3-methyl-2,3-dihydro-1H-imidazol-1-yl)methyl)-5-(2-methylpyridin-4-yl)benzamide], the pKi is 7.66. On to `Cc1cc(-c2cc(Cn3ccn(C)c3=N)cc(C(=O)NCc3ncc(Cl)cn3)c2)ccn1` [Example 51, N-((5-Chloropyrimidin-2-yl)methyl)-3-((2-imino-3-methyl-2,3-dihydro-1H-imidazol-1-yl)methyl)-5-(2-methylpyridin-4-yl)benzamide], for which the pKi is 7.77. On the same count and under the same terms, in the case of `COc1cc(CNC(=O)c2cc(Cn3ccn(C)c3=N)cc(-c3cnc(F)cc3C)c2)cc(OC)c1` [Example 78, N-(3,5-Dimethoxybenzyl)-3-(6-fluoro-4-methylpyridin-3-yl)-5-((2-imino-3-methyl-2,3-dihydro-1H-imidazol-1-yl)methyl)benzamide] it was 8.23. For the compound `Cc1cc(CNC(=O)c2cc(Cn3ccn(C)c3=N)cc(-c3cnc(F)cc3C)c2)ccc1Cl` [Example 79, N-(4-Chloro-3-methylbenzyl)-3-(6-fluoro-4-methylpyridin-3-yl)-5-((2-imino-3-methyl-2,3-dihydro-1H-imidazol-1-yl)methyl)benzamide], the pKi was 8.37.

As for `Cc1cc(CNC(=O)c2cc(Cn3ccn(C)c3=N)cc(-c3ccc(=O)[nH]c3C)c2)ccc1Cl` [Example 80, N-(4-Chloro-3-methylbenzyl)-3-((2-imino-3-methyl-2,3-dihydro-1H-imidazol-1-yl)methyl)-5-(2-methyl-6-oxo-1,6-dihydropyridin-3-yl)benzamide], the pKi is 7.70. The same measure, in the same setting: in the case of `COc1cc(CNC(=O)c2cc(Cn3ccn(C)c3=N)cc(-c3c[nH]c(=O)cc3C)c2)cc(OC)c1` [Example 81, N-(3,5-Dimethoxybenzyl)-3-((2-imino-3-methyl-2,3-dihydro-1H-imidazol-1-yl)methyl)-5-(4-methyl-6-oxo-1,6-dihydropyridin-3-yl)benzamide] it was 7.89. Same read-out and setting: under `Cc1cc(=O)[nH]cc1-c1cc(Cn2ccn(C)c2=N)cc(C(=O)NCc2ccc(Cl)c(Cl)c2)c1` [Example 82, N-(3,4-dichlorobenzyl)-3-((2-imino-3-methyl-2,3-dihydro-1H-imidazol-1-yl)methyl)-5-(4-methyl-6-oxo-1,6-dihydropyridin-3-yl)benzamide] stands 7.70.

For `Cc1cc(CNC(=O)c2cc(Cn3ccn(C)c3=N)cc(-c3c[nH]c(=O)cc3C)c2)ccc1Cl` [Example 83, N-(4-Chloro-3-methylbenzyl)-3-((2-imino-3-methyl-2,3-dihydro-1H-imidazol-1-yl)methyl)-5-(4-methyl-6-oxo-1,6-dihydropyridin-3-yl)benzamide], the pKi is 8.15. Same read-out and setting: under `Cc1ccccc1-c1cc(Cn2ccn(C)c2=N)cc(C(=O)NCc2ccc(Cl)c(Cl)c2)c1` [Example 92, N-(3,4-dichlorobenzyl)-5-((2-imino-3-methyl-2,3-dihydro-1H-imidazol-1-yl)methyl)-2′-methyl-[1,1′-biphenyl]-3-carboxamide] stands 9.14. The same measure, in the same setting: under `COc1ccnc([C@H](NC(=O)c2cc(Cn3ccn(C)c3=N)cc(-c3ccc(F)cc3C)c2)C2CC2)c1` [Example 93, (R)—N-(Cyclopropyl(4-methoxypyridin-2-yl)methyl)-4′-fluoro-5-((2-imino-3-methyl-2,3-dihydro-1H-imidazol-1-yl)methyl)-2′-methyl-[1,1′-biphenyl]-3-carboxamide] stands 8.72; under `Cc1cc([C@@H](NC(=O)c2cc(Cn3ccn(C)c3=N)cc(-c3ncnc4c3CCCC4)c2)C2CC2)ccc1F` [Example 94, (S)—N-(Cyclopropyl(4-fluoro-3-methylphenyl)methyl)-3-((2-imino-3-methyl-2,3-dihydro-1H-imidazol-1-yl)methyl)-5-(5,6,7,8-tetrahydroquinazolin-4-yl)benzamide], 7.44.
